Data: article PMC7113773 (Antiviral Research, 2014)

Tested on: NA (H275Y), OSV-resistant mutant of influenza H1N1 (A/California/04/2009)
Type: biochemical, influenza A virus

Cc1cc2c(c(=S)[nH]1)C(=O)O/C2=C\c1c[nH]c2ccc(F)cc12 [Compound 15a, (Z)-1-((5-Fluoro-1H-indol-3-yl)methylene)-6-methyl-4-thioxo-4,5-dihydrofuro[3,4-c]pyridin-3(1H)-one]
function of oseltamivir-resistant NA (H275Y): suppressed
